Assay: Loading of curcumin to polymeric micelles, UV-vis spectroscopy
Type: physicochemical
Method: The solution was added dropwise to 3 mL deionized water under stirring at room temperature. The solution was stirred for another 30 min and then dialyzed against deionized water for 24 h (MW cutoff=3500). The solution inside dialysis tubing was collected.

Q: Which “effective concentration of curcumin dispersed in micelle solution” value (copolymer 1 micelle solution) does the source give for `COc1cc(/C=C/C(=O)CC(=O)/C=C/c2ccc(O)c(OC)c2)ccc1O` [curcumin, Curcumin] here?
A: 187 µg/mL

Q: What about the protection from hydrolysis (in hydrophobic micellar cores) of the same compound?
A: effectively protect curcumin from hydrolysis

— patent US9944630B1, “Dithiolane carbonate monomers and polymers thereof” (The Board of Trustees of the Leland Stanford Junior …, priority 2014, dated 2018)
